Assay results taken from patent US7217815B2, “2-beta -modified-6-substituted adenosine analogs and their use as antiviral agents” (Valeant Pharmaceuticals North America, priority 2002, dated 2007).

Key:
[1] = test system: Bovine viral diarrhea virus (BVDV) (strain NADL); assay: Assay for inhibition of BVDV; assay type: cell-based; details: MDBK cells
Method: Bovine viral diarrhea virus (BVDV) (strain NADL) was provided by Dr. Ruben Donis and propagated in MDBK cells (ATCC). The nucleoside libraries and compounds were tested utilizing the modified protocol (V. B. Vassilev, M. S. Collett, R. O. Donis, J. Viol. 1997, 71, 471–478; S. G. Bagginski, D. C. Pevear, M. Seipel, S. C. C. Sun, C. A. Benetatos, S. K. Chunduru, C. M. Rice, M. S. Collett, Proc. Natl. Acad. Sci. U.S.A. 2000, 97, 7981–7986)

[2] = test system: HCV replicon RNA in replicon cells (Huh-7); assay: HCV replicon assay; assay type: cell-based; details: Huh-7 replicon cells, 3 days incubation, reduction of HCV RNA (Quantigene)
Method: The replicon cells (Huh-7) contain replicating HCV replicon RNA, which was modified in the structural region (replacing the structural region with a neomycin resistance marker). Survival of the replicon cells under G418 selection relies on the replication of HCV RNA and subsequently expression of neomycin phosphoryltransferase. The ability of modified nucleoside libraries and compounds to suppress HCV RNA replication was determined using the Quantigene Assay Kit from Bayer. The assay measures the reduction of HCV RNA molecules in the treated cells. Replicon cells were incubated at 37° C. for 3 days in the presence of nucleoside libraries and compounds before harvested for detection. HCV subgenomic replicon cell line was provided by Dr. Bartenschlager. The assay protocol was modified based on literature procedure (V. Lohmann, F. Korner, J. O. Koch, U. Herian, L. Theilmann, R. Bartenschlager, Science, 1999, 285, 110–113).

| Compound | EC50 [1] [µM] | EC50 [2] [µM] | EC50 ([1]; Bovine viral diarrhea virus isolates and strains) [µM] | EC50 ([2]; Hepatitis C virus, 72 h) [µM] |
| --- | --- | --- | --- | --- |
| C[C@@]1(O)[C@H](O)[C@@H](CO)O[C@H]1n1cnc2c(N(N)CCO)ncnc21 [Compound S1-13, 6-[N^1-(Hydroxyethyl)hydrazino]-9H-(2′-β-C-methyl-β-D-ribofuranosyl)purine] | > 100 | < 10 | – | – |
| CN(C)Nc1ncnc2c1ncn2[C@@H]1O[C@H](CO)[C@@H](O)[C@@]1(C)O [Compound S1-12, 6-(N,N-Dimethylhydrazino)-9H-(2′-β-C-methyl-β-D-ribofuranosyl)purine] | < 25 | < 10 | – | – |
| CSc1cccc(Nc2ncnc3c2ncn3[C@@H]2O[C@H](CO)[C@@H](O)[C@@]2(C)O)c1 [Compound S1-4, N^6-[3-(Methylthio)phenyl]-9H-(2′-β-C-methyl-β-D-ribofuranosyl)adenine] | > 100 | > 100 | – | – |
| C[C@@]1(O)[C@H](O)[C@@H](CO)O[C@H]1n1cnc2c(NNS(C)(=O)=O)ncnc21 [Compound S1-18] | 25 to 100 | < 10 | – | – |
| C[C@@]1(O)[C@H](O)[C@@H](CO)O[C@H]1n1cnc2c(NC[C@H]3CCCO3)ncnc21 [Compound S1-6, N^6-(R-Tetrahydrofurfuryl)-9H-(2′-β-C-methyl-β-D-ribofuranosyl)adenine] | > 100 | > 100 | – | – |
| C[C@@]1(O)[C@H](O)[C@@H](CO)O[C@H]1n1cnc2c(NNC=O)ncnc21 [Compound S1-14, 6-[(N^2-formyl)hydrazino]-9H-(2′-β-C-methyl-β-D-ribofuranosyl)purine] | > 100 | 10 to 100 | – | – |
| CC1(C)OCC(CNc2ncnc3c2ncn3[C@@H]2O[C@H](CO)[C@@H](O)[C@@]2(C)O)O1 (stereo partly drawn) [Compound S1-8, N^6-(2,2-Dimethyl-1,3-dioxolane-4-methyl)-9H-(2′-β-C-methyl-β-D-ribofuranosyl)adenine] | > 100 | > 100 | – | – |
| C[C@@]1(O)[C@H](O)[C@@H](CO)O[C@H]1n1cnc2c(NCCO)ncnc21 [Compound S1-9, N^6-[2-(Hydroxy)ethyl]-9H-(2′-β-C-methyl-β-D-ribofuranosyl)adenine] | > 100 | 10 to 100 | – | – |
| CC(C)(C)OC(=O)NOc1ncnc2c1ncn2[C@@H]1O[C@H](CO)[C@@H](O)[C@@]1(C)O [Compound S1-21, 6-(N-(t-Butyloxycarbonyl)aminoxy]-9H-(2′-β-C-methyl-β-D-ribofuranosyl)purine] | > 100 | < 10 | – | – |
| C[C@@]1(O)[C@H](O)[C@@H](CO)O[C@H]1n1cnc2c(NO)ncnc21 [Compound S1-19, 6-Hydroxyamino-9H-(2′-β-C-methyl-β-D-ribofuranosyl)purine] | 25 to 100 | < 10 | – | – |
| C[C@@]1(O)[C@H](O)[C@@H](CO)O[C@H]1n1cnc2c(NN)ncnc21 [Compound S1-11, 6-(Hydrazinyl)-9H-(2′-β-C-methyl-β-D-ribofuranosyl)purine] | 25 to 100 | < 10 | – | – |
| C[C@@]1(O)[C@H](O)[C@@H](CO)O[C@H]1n1cnc2c(NCCN)ncnc21 [Compound S2-1, N^6-(2-Aminoethyl)-9H-(2′-β-C-methyl-β-D-ribofuranosyl)adenine] | 25 to 100 | < 10 | – | – |
| C[C@@]1(O)[C@H](O)[C@@H](CO)O[C@H]1n1cnc2c(NCCNc3ncnc4c3ncn4[C@@H]3O[C@H](CO)[C@@H](O)[C@@]3(C)O)ncnc21 [Compound S2-2, N,N′-Bis[N^6-9H-(2′-β-C-methyl-β-D-ribofuranosyl)adenin-6-yl]ethylenediamine] | – | – | > 100 | 10 to 100 |
| CN(N)c1ncnc2c1ncn2[C@@H]1O[C@H](CO)[C@@H](O)[C@@]1(C)O [Compound S1-15, 6-(N^1-methylhydrazino)-9H-(2′-β-C-methyl-β-D-ribofuranosyl)purine] | > 100 | < 10 | – | – |
| CC(=O)NNc1ncnc2c1ncn2[C@@H]1O[C@H](CO)[C@@H](O)[C@@]1(C)O [Compound S1-17, 6-[N^2-(Acetyl)hydrazino]-9H-(2′-β-C-methyl-β-D-ribofuranosyl)purine] | < 25 | < 10 | – | – |
| CCOc1ccccc1CNc1ncnc2c1ncn2[C@@H]1O[C@H](CO)[C@@H](O)[C@@]1(C)O [Compound S1-7, N^6-(2-Ethoxybenzyl)-9H-(2′-β-C-methyl-β-D-ribofuranosyl)adenine] | > 100 | 10 to 100 | – | – |
| C[C@@]1(O)[C@H](O)[C@@H](CO)O[C@H]1n1cnc2c(ONC(=O)OCc3ccccc3)ncnc21 [Compound S1-22, 6-[(N-Benzyloxycarbonyl)aminoxy]-9H-(2′-β-C-methyl-β-D-ribofuranosyl)purine] | > 100 | < 10 | – | – |
| N^6-(2-Phenylpropyl)-9H-(2′-β-C-methyl-β-D-ribofuranosyl)adenine [Compound S1-5] | > 100 | > 100 | – | – |
| CON(C)c1ncnc2c1ncn2[C@@H]1O[C@H](CO)[C@@H](O)[C@@]1(C)O [Compound S1-20, 6-(N,O-Dimethylhydroxylamine)-9H-(2′-β-C-methyl-β-D-ribofuranosyl)purine] | > 100 | 10 to 100 | – | – |
| COC(=O)NNc1ncnc2c1ncn2[C@@H]1O[C@H](CO)[C@@H](O)[C@@]1(C)O [Compound S1-16] | 25 to 100 | < 10 | – | – |
